Reference: patent US20240425524A1, “SPIROTRICYCLE RIPK1 INHIBITORS AND METHODS OF USES THEREOF” (Merck Sharp & Dohme LLC, priority 2021, published 2024)

molecular target: RIPK1 (Homo sapiens (Human), UniProt Q13546); experiment: RIPK1-ADP-Glo Enzymatic Assay; type: biochemical; settings: recombinant GST-RIPK1 kinase domain (residues 1-327), 25 nM, ten-point titration, 30 minutes pre-incubation
Method in brief: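 GST-RIPK1 kinase domain (residues 1-327, Sf21-expressed; 25 nM final) was pre-incubated 30 min at ambient temperature with compound (10-point 1:3 series from 100000 nM, 1% DMSO) in HEPES pH 7.3 buffer with 20 mM MgCl2. The reaction was started with 900 μM ATP (addition solution) and 3 μM dephosphorylated MBP and ran 150 min. Read-out was ADP-Glo luminescence, with EC50 from a four-parameter fit.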

Sequence of RIPK1 (Q13546 1-327): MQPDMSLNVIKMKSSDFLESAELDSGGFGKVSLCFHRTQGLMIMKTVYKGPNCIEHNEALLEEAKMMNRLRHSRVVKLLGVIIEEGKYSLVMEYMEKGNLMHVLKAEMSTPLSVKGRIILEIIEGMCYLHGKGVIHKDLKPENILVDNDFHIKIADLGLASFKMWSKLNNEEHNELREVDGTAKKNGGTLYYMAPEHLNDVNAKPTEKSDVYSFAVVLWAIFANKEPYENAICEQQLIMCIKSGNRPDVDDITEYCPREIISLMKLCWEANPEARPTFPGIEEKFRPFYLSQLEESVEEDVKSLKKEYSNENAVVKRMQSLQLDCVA

SMILES	EC50 [nM]
CNC(=O)c1cc(N2CCC3(CC2)CN2CC[C@@H](c4cc(F)cc(F)c4)N2C3=O)ncn1 [Example 1.86, (S)-6-(7′-(3,5-difluorophenyl)-1′-oxodihydro-1′H,3′H,5′H-spiro[piperidine-4,2′-pyrazolo[1,2-a]pyrazol]-1-yl)-N-methylpyrimidine-4-carboxamide]	555
N#Cc1cccc(N2CCC3(CC2)CN2CC[C@@H](c4cc(F)cc(F)c4)N2C3=O)n1 [Example 1.58, (S)-6-(7′-(3,5-difluorophenyl)-1′-oxodihydro-1′H,3′H,5′H-spiro[piperidine-4,2′-pyrazolo[1,2-a]pyrazol]-1-yl)picolinonitrile]	34
O=C1N2[C@H](c3cc(F)cc(F)c3)CCN2CC12CCN(c1cnc(-c3ccc(Cl)cc3)cn1)CC2 [Example 2.18, (S)-1-(5-(4-chlorophenyl)pyrazin-2-y1)-7′-(3,5-difluorophenyl)dihydro-1′H,3′H,5′H-spiro[piperidine-4,2′-pyrazolo[1,2-a]pyrazol]-1′-one]	152
O=C1N2[C@H](c3cc(F)cc(F)c3)CCN2CC12CCN(c1cc(C(F)F)ncn1)CC2 [Example 1.7, (7′S)-1-[6-(difluoromethyl)pyrimidin-4-yl]-7′-(3,5-difluorophenyl)dihydro-1′H,3′H,5′H-spiro [piperidine-4,2′-pyrazolo[1,2-a]pyrazol]-1′-one]	39
Cc1cnn(-c2ccnc(N3CCC4(CC3)CN3CC[C@@H](c5cc(F)cc(F)c5)N3C4=O)c2)c1 [Example 2.26, (S)-7′-(3,5-difluorophenyl)-1-(4-(4-methyl-1H-pyrazol-1-yl)pyridin-2-yl)dihydro-1′H,3′H,5′H-spiro[piperidine-4,2′-pyrazolo[1,2-a]pyrazol]-1′-one]	98
O=C1N2[C@H](c3cc(F)cc(F)c3)CCN2CC12CCN(c1cncc(Cl)n1)CC2 [Example 1.40, (S)-1-(6-chloropyrazin-2-yl)-7′-(3,5-difluorophenyl)dihydro-1′H,3′H,5′H-spiro[piperidine-4,2′-pyrazolo[1,2-a]pyrazol]-1′-one]	407
COC(=O)N1CCC2(CC1)CN1CC[C@@H](c3cc(F)cc(F)c3)N1C2=O [Example 5.2, methyl (S)-7′-(3,5-difluorophenyl)-1′-oxodihydro-1′H,3′H,5′H-spiro [piperidine-4,2′-pyrazolo[1,2-a]pyrazole]-1-carboxylate]	139
Cc1cc(-c2cncs2)nc(N2CCC3(CC2)CN2CC[C@@H](c4cc(F)cc(F)c4)N2C3=O)c1 [Example 2.23, (S)-7′-(3,5-difluorophenyl)-1-(4-methyl-6-(thiazol-5-yl)pyridin-2-yl)dihydro-1′H,3′H,5′H-spiro[piperidine-4,2′-pyrazolo[1,2-a]pyrazol]-1′-one]	48
O=C1N2[C@H](c3cc(F)cc(F)c3)CCN2CC12CCN(c1cc(-c3cnn(C(F)F)c3)ncn1)CC2 [Example 1.87, (S)-1-(6-(1-(difluoromethyl)-1H-pyrazol-4-yl)pyrimidin-4-yl)-7′-(3,5-difluorophenyl)dihydro-1′H,3′H,5′H-spiro[piperidine-4,2′-pyrazolo[1,2-a]pyrazol]-1′-one]	6
Cc1ncc(Cl)nc1N1CCC2(CC1)CN1CC[C@@H](c3cc(F)cc(F)c3)N1C2=O [Example 1.43, (S)-1-(6-chloro-3-methylpyrazin-2-yl)-7′-(3,5-difluorophenyl)dihydro-1′H,3′H,5′H-spiro[piperidine-4,2′-pyrazolo[1,2-a]pyrazol]-1′-one]	876
N#Cc1ccc(N2CCC3(CC2)CN2CC[C@@H](c4cc(F)cc(F)c4)N2C3=O)n2nccc12 [Example 7.1]	6
Cc1ccc2c(N3CCC4(CC3)CN3CC[C@@H](c5cc(F)cc(F)c5)N3C4=O)ccnc2c1 [Example 2.8, (S)-7′-(3,5-difluorophenyl)-1-(7-methylquinolin-4-yl)dihydro-l′H,3′H,5′H-spiro[piperidine-4,2′-pyrazolo[1,2-a]pyrazol]-1′-one]	24
O=C1N2[C@H](c3cc(F)cc(F)c3)CCN2CC12CCN(c1cnc(Cl)cn1)CC2 [Example 1.42, (S)-1-(5-chloropyrazin-2-yl)-7′-(3,5-difluorophenyl)dihydro-1′H,3′H,5′H-spiro[piperidine-4,2′-pyrazolo[1,2-a]pyrazol]-1′-one]	86
O=C1N2[C@H](c3cc(F)cc(F)c3)CCN2CC12CCN(c1noc3ccccc13)CC2 [Example 2.6, (S)-1-(benzo[d]isoxazol-3-yl)-7′-(3,5-difluorophenyl)dihydro-1′H,3′H,5′H-spiro[piperidine-4,2′-pyrazolo[1,2-a]pyrazol]-1′-one]	145
O=C1N2[C@H](c3cc(F)cc(F)c3)CCN2CC12CCN(c1cncc(F)c1)CC2 [Example 10.2, (S)-7′-(3,5-difluorophenyl)-1-(5-fluoropyridin-3-yl)dihydro-1′H,3′H,5′H-spiro[piperidine-4,2′-pyrazolo[1,2-a]pyrazol]-l′-one]	338
O=C1N2[C@H](c3cc(F)cc(F)c3)CCN2CC12CCN(c1cccc(F)n1)CC2 [Example 1.12, (7′S)-7′-(3,5-difluorophenyl)-1-(6-fluoropyridin-2-yl)dihydro-1′H,3′H,5′H-spiro[piperidine-4,2′-pyrazolo[1,2-a]pyrazol]-1′-one]	29
Cc1cnc(N2CCC3(CC2)CN2CC[C@@H](c4cc(F)cc(F)c4)N2C3=O)nc1 [Example 1.6, (7′S)-7′-(3,5-difluorophenyl)-1-(5-methylpyrimidin-2-yl)dihydro-1′H,3′H,5′H-spiro[piperidine-4,2′-pyrazolo[1,2-a]pyrazol]-1′-one]	393
O=C1N2[C@H](c3cc(F)cc(F)c3)CCN2CC12CCN(c1nc3ccccc3o1)CC2 [Example 1.80, (S)-1-(benzo[d]oxazol-2-yl)-7′-(3,5-difluorophenyl)dihydro-1′H,3′H,5′H-spiro[piperidine-4,2′-pyrazolo[1,2-a]pyrazol]-1′-one]	50
O=C(c1cc(F)ccc1F)N1CCC2(CC1)CN1CC[C@@H](c3cc(F)cc(F)c3)N1C2=O [Example 4.21, (S)-1-(2,5-difluorobenzoyl)-7′-(3,5-difluorophenyl) dihydro-1′H,3′H,5′H-spiro[piperidine-4,2′-pyrazolo[1,2-a]pyrazol]-l′-one]	15
O=C1N2[C@H](c3cc(F)cc(F)c3)CCN2CC12CCN(c1ccnc3ccnn13)CC2 [Example 2.10, (S)-7′-(3,5-difluorophenyl)-1-(pyrazolo[1,5-a]pyrimidin-7-yl)dihydro-1′H,3′H,5′H-spiro[piperidine-4,2′-pyrazolo[1,2-a]pyrazol]-1′-one]	33
O=C1N2[C@H](c3cc(F)cc(F)c3)CCN2CC12CCN(c1cc(F)ccn1)CC2 [Example 1.3, (7′S)-7′-(3,5-difluorophenyl)-1-(4-fluoropyridin-2-yl)dihydro-1′H,3′H,5′H-spiro[piperidine-4,2′-pyrazolo[1,2-a]pyrazol]-1′-one]	19
O=C(c1cncc(F)c1)N1CCC2(CC1)CN1CC[C@@H](c3cc(F)cc(F)c3)N1C2=O [Example 4.17, (S)-7′-(3,5-difluorophenyl)-1-(5-fluoronicotinoyl) dihydro-1′H,3′H,5′H-spiro[piperidine-4,2′-pyrazolo[1,2-a]pyrazol]-l′-one]	446
O=C1N2[C@H](c3cc(F)cc(F)c3)CCN2CC12CCN(c1ncc(F)cn1)CC2 [Example 1.29, (S)-7′-(3,5-difluorophenyl)-1-(5-fluoropyrimidin-2-yl)dihydro-1′H,3′H,5′H-spiro[piperidine-4,2′-pyrazolo[1,2-a]pyrazol]-1′-one]	84
O=C1N2[C@H](c3cc(F)cc(F)c3)CCN2CC12CCN(c1cccc(Cl)n1)CC2 [Example 1.5, (7′S)-1-(6-chloropyridin-2-yl)-7′-(3,5-difluorophenyl)dihydro-1′H,3′H,5′H-spiro[piperidine-4,2′-pyrazolo[1,2-a]pyrazol]-1′-one]	24
O=C(c1ccc(F)c(F)c1)N1CCC2(CC1)CN1CC[C@@H](c3cc(F)cc(F)c3)N1C2=O [Example 4.24, (S)-1-(3,4-difluorobenzoyl)-7′-(3,5-difluorophenyl) dihydro-1′H,3′H,5′H-spiro[piperidine-4,2′-pyrazolo[1,2-a]pyrazol]-l′-one]	32
N#Cc1ccnc(N2CCC3(CC2)CN2CC[C@@H](c4cc(F)cc(F)c4)N2C3=O)n1 [Example 1.75, (S)-2-(7′-(3,5-difluorophenyl)-1′-oxodihydro-1′H,3′H,5′H-spiro[piperidine-4,2′-pyrazolo[1,2-a]pyrazol]-1-yl)pyrimidine-4-carbonitrile]	49
O=C(c1cc(F)cc(F)c1F)N1CCC2(CC1)CN1CC[C@@H](c3cc(F)cc(F)c3)N1C2=O [Example 4.12, (S)-7′-(3,5-difluorophenyl)-1-(2,3,5-trifluorobenzoyl) dihydro-1′H,3′H,5′H-spiro[piperidine-4,2′-pyrazolo[1,2-a]pyrazol]-l′-one]	26
CN(C)C(=O)c1ccnc(N2CCC3(CC2)CN2CC[C@@H](c4cc(F)cc(F)c4)N2C3=O)n1 [Example 1.88, (S)-2-(7′-(3,5-difluorophenyl)-1′-oxodihydro-1′H,3′H,5′H-spiro[piperidine-4,2′-pyrazolo[1,2-a]pyrazol]-1-yl)-N,N-dimethylpyrimidine-4-carboxamide]	111
CCn1cnc2c(N3CCC4(CC3)CN3CC[C@@H](c5cc(F)cc(F)c5)N3C4=O)ncnc21 [Example 3.2, (S)-7′-(3,5-difluorophenyl)-1-(9-ethyl-9H-purin-6-yl)dihydro-l′H,3′H,5′H-spiro[piperidine-4,2′-pyrazolo[1,2-a]pyrazol]-1′-one]	765
O=C(c1cnccn1)N1CCC2(CC1)CN1CC[C@@H](c3cc(F)cc(F)c3)N1C2=O [Example 4.1, (S)-7′-(3,5-difluorophenyl)-1-(pyrazine-2-carbonyl) dihydro-1′H,3′H,5′H-spiro [piperidine-4,2′-pyrazolo[1,2-a]pyrazol]-1′-one]	50
